Results published in ChEMBL document CHEMBL5357068, “Discovery of Novel TLR7 Agonists as Systemic Agent for Combination With aPD1 for Use in Immuno-oncology” (ACS Med Chem Lett, 2024).
The source made the active and inactive calls. The rule behind the calls is not given here.

Assays:
[1] = Metabolic stability in human liver microsomes assessed as compound remaining; format: ADME, Microsome
[2] = Metabolic stability in mouse liver microsomes assessed as compound remaining; format: ADME, Microsome
[3] = biological target: Voltage-gated inwardly rectifying potassium channel KCNH2 (Homo sapiens, UniProt Q12809); test: Inhibition of hERG by patch clamp assay; format: toxicity
Blood [4] = test: Induction of TNF-alpha secretion in human whole blood; format: functional, tissue-based
Blood [5] = test: Induction of IP-10 secretion in human whole blood; format: functional, tissue-based
Blood [6] = test: Induction of IFIT1 secretion in human whole blood; format: functional, tissue-based
Blood [7] = test: Induction of IFIT3 secretion in human whole blood; format: functional, tissue-based
Blood [8] = test: Induction of MX1 secretion in human whole blood; format: functional, tissue-based
Blood [9] = test: Induction of TNF-alpha secretion in mouse whole blood; format: functional, tissue-based
Blood [10] = test: Induction of IP-10 secretion in mouse whole blood; format: functional, tissue-based
Blood [11] = test: Induction of IFIT1 secretion in mouse whole blood; format: functional, tissue-based
Blood [12] = test: Induction of IFIT3 secretion in mouse whole blood; format: functional, tissue-based
Blood [13] = test: Induction of MX1 secretion in mouse whole blood; format: functional, tissue-based
[14] = Protein binding in human plasma assessed as free fraction; format: ADME, cell-free
[15] = Protein binding in mouse plasma assessed as free fraction; format: ADME, cell-free
[16] = Protein binding in cynomolgus monkey plasma assessed as free fraction; format: ADME, cell-free, Macaca fascicularis
[17] = biological target: Toll-like receptor 2 (Homo sapiens) (UniProt O60603); test: Agonist activity at human TLR2
[18] = biological target: Toll-like receptor 3 (Homo sapiens) (UniProt O15455); test: Agonist activity at human TLR3
[19] = biological target: Toll-like receptor 4 (Homo sapiens) (UniProt O00206); test: Agonist activity at human TLR4
[20] = biological target: T1, Toll-like receptor 8 (Homo sapiens) (UniProt Q9NR97); test: Agonist activity at human TLR8
T1 sequence (whole entry): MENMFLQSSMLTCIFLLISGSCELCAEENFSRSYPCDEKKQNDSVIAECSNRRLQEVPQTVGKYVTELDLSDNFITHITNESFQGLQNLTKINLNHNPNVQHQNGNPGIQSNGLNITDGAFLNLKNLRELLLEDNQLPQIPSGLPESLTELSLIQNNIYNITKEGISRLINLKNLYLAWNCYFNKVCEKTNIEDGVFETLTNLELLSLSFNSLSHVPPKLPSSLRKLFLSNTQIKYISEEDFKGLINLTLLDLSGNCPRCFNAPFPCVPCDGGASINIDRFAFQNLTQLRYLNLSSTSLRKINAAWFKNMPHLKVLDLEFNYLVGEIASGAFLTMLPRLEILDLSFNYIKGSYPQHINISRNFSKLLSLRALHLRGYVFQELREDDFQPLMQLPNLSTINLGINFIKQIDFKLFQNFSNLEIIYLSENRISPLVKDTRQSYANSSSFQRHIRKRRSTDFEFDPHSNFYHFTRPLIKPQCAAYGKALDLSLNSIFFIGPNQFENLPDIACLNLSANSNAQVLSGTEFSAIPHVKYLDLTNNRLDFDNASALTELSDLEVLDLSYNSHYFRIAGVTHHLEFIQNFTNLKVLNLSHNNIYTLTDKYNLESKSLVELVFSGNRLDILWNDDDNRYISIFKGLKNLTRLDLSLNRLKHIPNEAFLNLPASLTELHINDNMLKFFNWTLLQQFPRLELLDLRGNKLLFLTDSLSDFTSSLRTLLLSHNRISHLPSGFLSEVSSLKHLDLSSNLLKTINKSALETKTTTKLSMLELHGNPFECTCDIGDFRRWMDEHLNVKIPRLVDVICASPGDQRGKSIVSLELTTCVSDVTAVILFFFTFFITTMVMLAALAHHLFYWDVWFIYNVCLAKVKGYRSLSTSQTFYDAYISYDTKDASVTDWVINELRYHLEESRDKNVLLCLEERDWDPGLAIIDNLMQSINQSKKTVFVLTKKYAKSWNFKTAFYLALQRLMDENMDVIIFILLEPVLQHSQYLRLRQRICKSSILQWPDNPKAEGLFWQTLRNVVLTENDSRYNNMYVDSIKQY

[21] = biological target: T2, Nuclear receptor subfamily 1 group I member 2 (Homo sapiens, UniProt O75469); test: Transactivation of PXR (unknown origin)
T2 sequence (O75469 whole entry): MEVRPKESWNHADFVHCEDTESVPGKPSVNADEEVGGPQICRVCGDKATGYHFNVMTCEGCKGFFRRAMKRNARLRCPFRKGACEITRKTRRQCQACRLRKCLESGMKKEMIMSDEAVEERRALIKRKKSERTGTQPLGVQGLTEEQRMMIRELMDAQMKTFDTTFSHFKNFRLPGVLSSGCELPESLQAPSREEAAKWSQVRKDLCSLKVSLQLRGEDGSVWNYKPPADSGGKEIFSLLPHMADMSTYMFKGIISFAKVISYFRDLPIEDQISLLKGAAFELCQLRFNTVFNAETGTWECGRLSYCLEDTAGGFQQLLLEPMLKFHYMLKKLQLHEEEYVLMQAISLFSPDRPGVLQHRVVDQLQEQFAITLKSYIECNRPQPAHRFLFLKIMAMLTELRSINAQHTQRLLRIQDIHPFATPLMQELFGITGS

CT26 [22] = test: Cytotoxicity against mouse CT26 cells; format: toxicity, cell-based
Jurkat = test: Cytotoxicity against human Jurkat cells; format: toxicity, cell-based
THP-1 = test: Cytotoxicity against human THP-1 cells; format: toxicity, cell-based
[23] = Metabolic stability in human liver microsomes assessed as half-life; format: ADME, Microsome
[24] = Metabolic stability in mouse liver microsomes assessed as half-life; format: ADME, Microsome
[25] = Metabolic stability in cynomolgus monkey liver microsomes assessed as half-life; format: ADME, Macaca fascicularis, Microsome
[26] = Permeability of compound across apical to basolateral side in human Caco-2 cells; format: ADME, cell-based; conditions: read-out: permeability
[27] = Permeability of compound across basolateral to apical side in human Caco-2 cells; format: ADME, cell-based; conditions: read-out: permeability
[28] = Permeability of compound at pH 5.5 by PAMPA; format: ADME; conditions: read-out: permeability
[29] = Permeability of compound at pH 7.4 by PAMPA; format: ADME; conditions: read-out: permeability
[30] = AUClast in Balb/c mouse at […], iv measured after 2 hrs by LC-MS analysis; format: ADME, organism-based; parameters: time 2 hrs, dose 0.15 mg/kg, route iv; conditions: in vivo
[31] = Drug concentration in Balb/c mouse at 0.5 mg/kg, iv measured after 5 min by LC-MS analysis; format: ADME, organism-based; conditions: in vivo, read-out: Drug uptake
Mus musculus [32] = test: Induction of IFN-alpha production in iv dosed Balb/c mouse serum measured after 6 hrs by ELISA analysis; format: functional, organism-based; conditions: dose lower […], dose upper 0.5 mg/kg
Mus musculus [33] = test: Induction of IFN-alpha production in Balb/c mouse serum at […], iv measured after 6 hrs by ELISA analysis; format: functional, organism-based
CT26 [34] = test: Antitumor activity against mouse CT26 cells implanted in Balb/cAnNHsd mouse administered intraperitoneally once a week for 4 weeks in the presence of aPD1 antibody; format: functional; conditions: dose lower […], dose upper […], route ip
[35] = Inhibition of GPCR (unknown origin); parameters: species or system Homo sapiens
in vitro = conditions: PHA-activated T cells

Sequence of Toll-like receptor 2 (Homo sapiens) (O60603 whole entry): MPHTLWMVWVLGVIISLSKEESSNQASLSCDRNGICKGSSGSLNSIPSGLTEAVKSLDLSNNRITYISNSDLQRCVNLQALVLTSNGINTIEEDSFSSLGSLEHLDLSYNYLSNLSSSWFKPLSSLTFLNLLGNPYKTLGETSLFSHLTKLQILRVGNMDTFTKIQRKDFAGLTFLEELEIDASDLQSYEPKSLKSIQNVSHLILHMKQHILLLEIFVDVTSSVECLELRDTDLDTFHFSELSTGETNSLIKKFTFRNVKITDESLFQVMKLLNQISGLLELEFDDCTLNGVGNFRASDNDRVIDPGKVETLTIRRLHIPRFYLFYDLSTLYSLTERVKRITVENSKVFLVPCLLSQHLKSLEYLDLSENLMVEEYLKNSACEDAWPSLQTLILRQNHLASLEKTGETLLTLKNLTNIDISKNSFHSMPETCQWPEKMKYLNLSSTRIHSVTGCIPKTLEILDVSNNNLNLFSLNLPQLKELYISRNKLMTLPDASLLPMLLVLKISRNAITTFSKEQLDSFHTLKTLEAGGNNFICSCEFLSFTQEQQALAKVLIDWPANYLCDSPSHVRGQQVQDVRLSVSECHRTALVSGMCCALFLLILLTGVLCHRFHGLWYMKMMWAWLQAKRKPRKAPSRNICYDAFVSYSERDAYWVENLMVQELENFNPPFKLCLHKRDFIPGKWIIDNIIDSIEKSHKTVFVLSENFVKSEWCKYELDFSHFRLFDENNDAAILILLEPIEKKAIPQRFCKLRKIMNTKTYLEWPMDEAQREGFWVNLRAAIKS
Sequence of Toll-like receptor 4 (Homo sapiens) (O00206 whole entry): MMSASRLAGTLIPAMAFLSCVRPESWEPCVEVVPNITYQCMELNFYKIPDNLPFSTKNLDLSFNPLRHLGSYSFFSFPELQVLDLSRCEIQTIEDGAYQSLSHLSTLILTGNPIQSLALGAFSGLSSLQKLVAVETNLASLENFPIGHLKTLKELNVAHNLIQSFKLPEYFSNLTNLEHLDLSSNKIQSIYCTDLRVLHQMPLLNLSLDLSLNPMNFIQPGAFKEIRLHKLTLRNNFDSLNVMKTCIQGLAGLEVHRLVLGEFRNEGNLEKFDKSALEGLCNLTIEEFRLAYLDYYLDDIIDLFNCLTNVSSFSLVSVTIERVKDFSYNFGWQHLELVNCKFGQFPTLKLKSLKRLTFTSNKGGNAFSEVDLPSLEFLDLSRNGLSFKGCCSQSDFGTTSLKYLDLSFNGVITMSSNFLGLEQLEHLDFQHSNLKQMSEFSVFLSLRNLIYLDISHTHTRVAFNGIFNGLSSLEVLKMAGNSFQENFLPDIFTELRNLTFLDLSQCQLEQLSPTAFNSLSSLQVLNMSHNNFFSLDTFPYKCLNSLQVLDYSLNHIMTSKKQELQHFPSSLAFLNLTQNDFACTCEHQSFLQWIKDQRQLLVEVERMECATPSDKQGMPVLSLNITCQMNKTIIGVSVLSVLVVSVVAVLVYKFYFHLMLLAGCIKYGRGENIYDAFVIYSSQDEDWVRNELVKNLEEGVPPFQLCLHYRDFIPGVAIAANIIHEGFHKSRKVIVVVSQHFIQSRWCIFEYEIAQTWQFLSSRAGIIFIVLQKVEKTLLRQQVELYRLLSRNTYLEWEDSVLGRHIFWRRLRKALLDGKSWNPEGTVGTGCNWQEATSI
Sequence of Voltage-gated inwardly rectifying potassium channel KCNH2 (Q12809 whole entry): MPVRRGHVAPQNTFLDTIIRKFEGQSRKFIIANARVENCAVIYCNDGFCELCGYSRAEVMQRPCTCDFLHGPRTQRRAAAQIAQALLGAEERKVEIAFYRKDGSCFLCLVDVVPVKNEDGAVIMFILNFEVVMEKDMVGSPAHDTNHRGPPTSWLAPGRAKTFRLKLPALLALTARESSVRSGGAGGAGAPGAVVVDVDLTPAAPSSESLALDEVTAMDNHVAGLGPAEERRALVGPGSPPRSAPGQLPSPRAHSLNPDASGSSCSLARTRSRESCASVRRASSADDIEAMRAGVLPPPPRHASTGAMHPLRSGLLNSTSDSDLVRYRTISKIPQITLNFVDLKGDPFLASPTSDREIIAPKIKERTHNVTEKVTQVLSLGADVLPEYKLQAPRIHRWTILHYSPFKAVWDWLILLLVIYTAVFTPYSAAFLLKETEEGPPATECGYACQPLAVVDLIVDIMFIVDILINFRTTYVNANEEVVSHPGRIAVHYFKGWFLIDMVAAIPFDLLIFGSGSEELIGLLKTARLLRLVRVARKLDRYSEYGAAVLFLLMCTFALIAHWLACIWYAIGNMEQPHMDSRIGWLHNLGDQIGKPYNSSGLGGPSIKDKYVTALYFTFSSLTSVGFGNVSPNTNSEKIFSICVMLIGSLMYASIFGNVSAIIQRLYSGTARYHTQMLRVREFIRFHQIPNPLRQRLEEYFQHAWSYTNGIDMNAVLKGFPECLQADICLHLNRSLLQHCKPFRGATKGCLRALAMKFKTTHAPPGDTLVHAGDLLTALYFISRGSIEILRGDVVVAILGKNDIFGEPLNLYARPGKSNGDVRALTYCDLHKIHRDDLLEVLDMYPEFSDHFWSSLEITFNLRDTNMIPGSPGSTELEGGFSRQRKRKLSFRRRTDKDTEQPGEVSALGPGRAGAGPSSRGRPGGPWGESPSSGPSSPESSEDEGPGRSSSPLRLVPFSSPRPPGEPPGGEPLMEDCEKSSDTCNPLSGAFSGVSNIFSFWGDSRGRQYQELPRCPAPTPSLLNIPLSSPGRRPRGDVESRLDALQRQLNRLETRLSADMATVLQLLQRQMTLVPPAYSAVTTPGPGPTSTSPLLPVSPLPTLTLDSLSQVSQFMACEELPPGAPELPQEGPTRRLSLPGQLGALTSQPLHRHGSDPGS
Sequence of Toll-like receptor 3 (Homo sapiens) (O15455 whole entry): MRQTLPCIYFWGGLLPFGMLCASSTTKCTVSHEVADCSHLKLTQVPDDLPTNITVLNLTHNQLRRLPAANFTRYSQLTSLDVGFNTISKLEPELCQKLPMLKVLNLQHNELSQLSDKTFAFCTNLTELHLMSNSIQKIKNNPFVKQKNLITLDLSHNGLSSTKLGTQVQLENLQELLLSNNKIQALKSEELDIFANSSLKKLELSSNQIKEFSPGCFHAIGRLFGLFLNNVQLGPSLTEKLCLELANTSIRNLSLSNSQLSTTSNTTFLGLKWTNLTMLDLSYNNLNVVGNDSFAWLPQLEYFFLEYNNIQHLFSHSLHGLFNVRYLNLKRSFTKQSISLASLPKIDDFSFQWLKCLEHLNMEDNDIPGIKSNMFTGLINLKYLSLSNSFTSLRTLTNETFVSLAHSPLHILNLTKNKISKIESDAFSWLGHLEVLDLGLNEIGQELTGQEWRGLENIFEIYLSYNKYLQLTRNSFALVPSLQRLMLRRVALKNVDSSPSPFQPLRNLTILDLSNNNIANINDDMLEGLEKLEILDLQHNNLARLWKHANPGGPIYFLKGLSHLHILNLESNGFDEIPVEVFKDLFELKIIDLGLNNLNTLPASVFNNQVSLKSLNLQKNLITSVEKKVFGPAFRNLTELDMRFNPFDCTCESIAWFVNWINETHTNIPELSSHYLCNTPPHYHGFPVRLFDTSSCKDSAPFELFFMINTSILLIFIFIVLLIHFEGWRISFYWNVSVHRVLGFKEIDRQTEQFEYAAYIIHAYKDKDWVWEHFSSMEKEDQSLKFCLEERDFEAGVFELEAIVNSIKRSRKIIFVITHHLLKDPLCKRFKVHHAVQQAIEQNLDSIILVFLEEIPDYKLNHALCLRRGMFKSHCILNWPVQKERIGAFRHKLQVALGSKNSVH

Stability [1]: 75% | Stability [2]: 81% | EC50 (Blood [4]): 631 nM | EC50 (Blood [5]): 0.13 nM | EC50 (Blood [6]): 0.1 nM | EC50 (Blood [7]): 0.11 nM | EC50 (Blood [8]): 0.09 nM | EC50 (Blood [9]): 3.4 nM | EC50 (Blood [10]): 0.32 nM | EC50 (Blood [11]): 0.19 nM | EC50 (Blood [12]): 0.13 nM | EC50 (Blood [13]): 0.18 nM | fraction unbound [14]: 0.5 | fraction unbound [15]: 0.41 | fraction unbound [16]: 0.31 | EC [17]: > 5 µM | EC [18]: > 5 µM | EC [19]: > 5 µM | EC [20]: > 5 µM | EC [21]: > 50 nM | half-life [23]: 43 min | half-life [24]: 85 min | half-life [25]: 16 min | Papp A→B [26]: 1.4 ×10⁻⁶ cm/s | Papp B→A [27]: 10.9 ×10⁻⁶ cm/s | Papp [28]: 0.95 ×10⁻⁶ cm/s | Papp [29]: 1.58 ×10⁻⁶ cm/s | AUC(0-t) at 2 h [30]: 0.075 µM·h | concentration at 5 min [31]: 139 nM | IC50 [35]: > 30000 nM | IC50 (in vitro): > 25000 nM
Compound: CCC[C@@H](CCO)Nc1nc(N)nc2cnn(Cc3ccc(CNC4CCOCC4)cc3OC)c12
IC50 [3]: ≥ 45000 nM | EC (CT26 [22]): > 25 µM | EC (Jurkat): > 25 µM | EC (THP-1): > 25 µM | Activity (Mus musculus [32]): Dose-Dependent Effect | Activity (Mus musculus [33]): inactive | Activity (CT26 [34]): Dose-Dependent Effect
